Experimental data taken from patent US11730720B2, “ALK5 inhibitors” (THERAVANCE BIOPHARMA R&D IP, LLC, priority 2018, dated 2023).

What was measured:
[1] = test system: TGF-β-stimulated SMAD3 phosphorylation in BEAS-2B cells; assay: Cellular ALK5 potency assay, inhibition of TGF-β stimulated pSMAD3 formation in BEAS-2B cells; format: cell-based; details: Homo sapiens, inhibition of TGF-β (10 ng/mL) stimulated pSMAD3 formation, 1 hour compound incubation, read-out: BEAS2B pIC50 (converted)
Procedure: Example 255: Cellular ALK5 Potency Assay to Measure pIC50, Inhibition of TGF-β Stimulated pSMAD3 Formation in BEAS-2B Cells
The potency of compounds of the present disclosure for inhibition of TGF-β-stimulated SMAD3 phosphorylation was measured in BEAS-2B cells, a human lung epithelial cell line. TGF-β signals through activin receptor-like kinase 5 (ALK5) immediately prior to SMAD3 phosphorylation.
BEAS-2B cells were grown using 50% DMEM (Life Technologies) and 50% F-12 (Life Technologies) media, supplemented with 10% Fetal Bovine Serum (ATCC), 25 mM HEPES (Life Technologies), and 1×Pen-Strep (Life Technologies). Cells were cultured in a humidified incubator set at 37° C., 5% CO2, and trypsonized using 0.25% Trypsin with 0.5% polyvinylpyrrolidone (PVP).
For the assay, BEAS-2B cells were seeded at 7,500 cells/well (25 μL/well) in a 384-well plate and cultured overnight. Before dosing, growth media was aspirated and the wells were rinsed with HBSS Buffer (HBSS with Calcium and Magnesium, Life Technologies) supplemented with 25 mM HEPES (Life Technologies) and 1% Bovine Serum Albumin (Roche). Compounds were serially diluted in DMSO, then further diluted with supplemented HBSS Buffer (50 μL/well) to create a compound plate 3× of the final assay concentration, at 0.3% DMSO. The diluted compounds were then added to the cells (8 μL/well) and incubated at 37° C., 5% CO2 for 1 hour. After the compound incubation, TGF-β (R&D Systems) reconstituted in supplemented HBSS Buffer was added to the cells ([…], final concentration 10 ng/mL) and incubated for a further 30 minutes, after which the cells were immediately lysed with AlphaLISA lysis buffer (PerkinElmer). AlphaLISA Acceptor and Detector beads (PerkinElmer) were added 2 hours apart, then incubated overnight to be read the next day. The potency of the compound was determined through analysis of dose-dependent quantified changes in pSMAD3 signal from baseline (non-compound treated TGF-β stimulated cells). Data are expressed as pIC50 (negative decadic logarithm IC50) values.

[2] = target: T1, recombinant human ALK5 (TGF-βR1) protein (Homo sapiens, UniProt P36897); assay: Biochemical ALK5 (TGF-βR1) assay to measure pKi (LANCE Ultra ULight kinase assay); details: apparent pKi, converted from pIC50 using the Cheng-Prusoff equation
T1 construct: purchased Life Technologies PR9075A
T1 sequence (P36897 34-503): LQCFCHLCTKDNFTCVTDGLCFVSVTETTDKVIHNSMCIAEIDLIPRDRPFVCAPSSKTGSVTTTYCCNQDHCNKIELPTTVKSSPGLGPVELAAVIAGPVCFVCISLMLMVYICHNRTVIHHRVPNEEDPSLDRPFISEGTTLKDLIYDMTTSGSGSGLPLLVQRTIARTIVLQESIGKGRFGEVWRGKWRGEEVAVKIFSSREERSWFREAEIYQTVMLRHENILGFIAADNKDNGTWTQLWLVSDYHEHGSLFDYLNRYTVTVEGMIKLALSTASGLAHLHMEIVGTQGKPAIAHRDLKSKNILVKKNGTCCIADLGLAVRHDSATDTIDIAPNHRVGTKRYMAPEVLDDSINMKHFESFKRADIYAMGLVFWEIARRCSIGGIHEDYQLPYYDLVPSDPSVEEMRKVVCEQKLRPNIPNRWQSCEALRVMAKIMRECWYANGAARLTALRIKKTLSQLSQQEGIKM
Procedure: Example 254: Biochemical ALK5 (TGF-βR1) Assay to Measure pKi
The assays were performed in a 384-well plate (24 columns×16 wells/rows). An Echo® 550 Liquid Handler (Labcyte) was used to prepare various intermediate concentrations of compounds of the present disclosure in 100% DMSO. From the intermediate concentrations, a range of concentrations (from 10 μM to 25 pM corresponding to volumes up to 105 nL) were prepared and ejected into a final assay plate to be used to create individual dose response curves for each of the subject compounds. To a separate column within the assay plate, 105 nL of DMSO in each well was used to establish a maximum assay signal. Additionally, 105 nL of 100 μM SD-208, a selective TGF-βR1 inhibitor (Catalog #S7624, Selleck Chemicals), was used in another column of wells to establish a minimal assay signal.
With a multidrop dispenser, 8 μL of enzyme mixture (1.25× final) was added to each well. The enzyme mixture consisted of 250 pM ALK5 enzyme and 62.5 nM peptide substrate (LANCE® (lanthanide chelate excite) Ultra ULight™-DNA Topoisomerase 2-alpha (Thr1342)) prepared in assay buffer (50 mM HEPES, 10 mM MgCl2, 1 mM EGTA, 0.01% Tween-20, pH 7.5 at room temperature) with 2 mM DTT added prior to use. The plate was then sealed with an adhesive seal and allowed to equilibrate for 60 minutes at room temperature.
Next, 2 μL of 125 μM ATP (5× final, 125 μM ATP prepared in assay buffer with 2 mM DTT) was added to the incubated mixtures, covered with a MicroClime® Environmental Lid (Product No. LLS-0310, Labcyte) and immediately transferred to 37° C. The reactions were allowed to proceed at 37° C. for 60 minutes before terminating with the addition of 10 μL of detection antibody (LANCE® (lanthanide chelate excite) Ultra Europium-anti-phospo-DNA Topoisomerase 2-alpha (Thr1342)) in detection mixture (12 mM EDTA, 4 nM detection antibody prepared in detection buffer (50 mM Tris-HCl, 150 mM NaCl, 0.5% BSA (Fraction V), pH 7.0)) at room temperature. The plate was then read on a Perkin Elmer EnVision Plate Reader using europium specific reader settings with excitation and emission wavelengths set to 320 or 340 nm and 665 nm, respectively.
For dose-response analyses, percent inhibition versus compound concentrations were plotted, and pIC50 values were determined from a 4-parameter robust fit model with GraphPad Prism V5 Software (GraphPad Software, Inc., La Jolla, Calif.). This model obtains pIC50 values by fitting the sigmodial dose-response (variable slope) equation to the data. Results were expressed as pIC50 (negative logarithm of IC50) and subsequently converted to pKi (negative logarithm of dissociate constant, K) using the Cheng-Prusoff equation.
The higher the value of pKi (lower value of Ki), the greater the inhibition of ALK5 activity.

Row | Structure (SMILES) | Ki [2] [nM] | IC50 [1] [nM]
1 | Fc1ccc(Cl)cc1-c1n[nH]cc1-c1ccc2ncc(-c3[nH]nc4c3CCNC4)cc2n1 [Compound 1-121, 2-[3-(5-chloro-2-fluoro-phenyl)-1H-pyrazol-4-yl]-7-(4,5,6,7-tetrahydro-2H-pyrazolo[3,4-c]pyridin-3-yl)-1,5-naphthyridine] | 0.0398 to 0.316 | 25.1 to 158
2 | Fc1cc(F)c(-c2n[nH]cc2-c2ccc3ncc(-c4cnc5n4CCN5)cc3n2)cc1Cl [Compound 6-54, 2-[3-(5-chloro-2,4-difluoro-phenyl)-1H-pyrazol-4-yl]-7-(6,7-dihydro-5H-imidazo[1,2-a]imidazol-3-yl)-1,5-naphthyridine] | 0.0398 to 0.316 | 25.1 to 158
3 | NC(=O)C1CN(c2cnc3ccc(-c4c[nH]nc4-c4cc(Cl)ccc4F)nc3c2)CCN1 (racemic) [Compound 1-50, rac-(2S)-4-[6-[3-(5-chloro-2-fluoro-phenyl)-1H-pyrazol-4-yl]-1,5-naphthyridin-3-yl]piperazine-2-carboxamide] | 0.398 to 3.16 | 25.1 to 158
4 | CN(C)C1(C)CN(c2cnc3ccc(-c4c[nH]nc4-c4cc(Cl)ccc4F)nc3c2)C1 [Compound 1-33, 1-[6-[3-(5-chloro-2-fluoro-phenyl)-1H-pyrazol-4-yl]-1,5-naphthyridin-3-yl]-N,N,3-trimethyl-azetidin-3-amine] | 0.398 to 3.16 | 25.1 to 158
5 | C[C@@H]1CN(CCNc2cnc3ccc(-c4nc[nH]c4-c4cc(Cl)ccc4F)nc3c2)C[C@H](C)N1 [Compound 2-29, 6-(5-(5-chloro-2-fluorophenyl)-1H-imidazol-4-yl)-N-(2-((3S,5R)-3,5-dimethylpiperazin-1-yl)ethyl)-1,5-naphthyridin-3-amine] | 0.0398 to 0.316 | 25.1 to 158
6 | Fc1cc(F)c(-c2n[nH]cc2-c2ccc3ncc(N4CC5CNC5C4)cc3n2)cc1Cl (stereo not drawn) [Compound 6-33, 2-[3-(5-chloro-2,4-difluoro-phenyl)-1H-pyrazol-4-yl]-7-(3,6-diazabicyclo[3.2.0]heptan-3-yl)-1,5-naphthyridine] | 0.398 to 3.16 | 25.1 to 158
7 | Fc1ccc(Cl)cc1-c1n[nH]cc1-c1ccc2ncc(NC3CNC3)cc2n1 [Compound 1-18, N-(azetidin-3-yl)-6-[3-(5-chloro-2-fluoro-phenyl)-1H-pyrazol-4-yl]-1,5-naphthyridin-3-amine] | 0.0398 to 0.316 | 25.1 to 158
8 | Fc1cc(F)c(-c2n[nH]cc2-c2ccc3ncc(-c4[nH]nc5c4CCN5)cc3n2)cc1Cl [Compound 6-59, 2-[3-(5-chloro-2,4-difluoro-phenyl)-1H-pyrazol-4-yl]-7-(2,4,5,6-tetrahydropyrrolo[2,3-c]pyrazol-3-yl)-1,5-naphthyridine] | 0.0398 to 0.316 | 25.1 to 158
9 | CC(C)NCCn1cc(-c2cnc3ccc(-c4c[nH]nc4-c4cc(Cl)ccc4F)nc3c2)cn1 [Compound 1-94, N-(2-(4-(6-(3-(5-chloro-2-fluorophenyl)-1H-pyrazol-4-yl)-1,5-naphthyridin-3-yl)-1H-pyrazol-1-yl)ethyl)propan-2-amine] | ≤ 0.0316 | 25.1 to 158
10 | Fc1ccc(Cl)cc1-c1n[nH]cc1-c1ccc2ncc(-c3ncn4c3CNCC4)cc2n1 [Compound 1-113, 2-[3-(5-chloro-2-fluoro-phenyl)-1H-pyrazol-4-yl]-7-(5,6,7,8-tetrahydroimidazo[1,5-a]pyrazin-1-yl)-1,5-naphthyridine] | 0.0398 to 0.316 | 25.1 to 158
11 | Fc1ccc(Cl)cc1-c1n[nH]cc1-c1ccc2ncc(N3CCn4nc(Br)nc4C3)cc2n1 [Compound 1-48, 7-(2-bromo-6,8-dihydro-5H-[1,2,4]triazolo[1,5-a]pyrazin-7-yl)-2-[3-(5-chloro-2-fluoro-phenyl)-1H-pyrazol-4-yl]-1,5-naphthyridine] | 0.398 to 3.16 | ≤ 20
12 | NC(=O)c1coc(-c2cnc3ccc(-c4c[nH]nc4-c4cc(Cl)ccc4F)nc3c2)n1 [Compound 1-105, 2-[6-[3-(5-chloro-2-fluoro-phenyl)-1H-pyrazol-4-yl]-1,5-naphthyridin-3-yl]oxazole-4-carboxamide] | 0.0398 to 0.316 | 25.1 to 158
13 | CNC1CN(c2cnc3ccc(-c4c[nH]nc4-c4cc(Cl)ccc4F)nc3c2)C1 [Compound 1-49, 1-(6-(3-(5-chloro-2-fluorophenyl)-1H-pyrazol-4-yl)-1,5-naphthyridin-3-yl)-N-methylazetidin-3-amine] | 0.0398 to 0.316 | ≤ 20

More lines, main results first:

Row | Ki [2] [nM] | Structure (SMILES) | IC50 [1] [nM]
14 | ≤ 0.0316 | CNCCn1cc(-c2cnc3ccc(-c4c[nH]nc4-c4cc(Cl)ccc4F)cc3c2)cn1 [Compound 16-1, 2-(4-(6-(3-(5-chloro-2-fluorophenyl)-1H-pyrazol-4-yl)quinolin-3-yl)-1H-pyrazol-1-yl)-N-methylethan-1-amine] | ≤ 20
15 | 0.398 to 3.16 | COCc1cccc(-c2n[nH]cc2-c2ccc3ncc(N4CCC(N5CCN(C)CC5)CC4)cc3n2)c1 [Compound 14-2, 2-[3-(3-(methoxymethyl)phenyl]-1H-pyrazol-4-yl]-7-[4-(4-methylpiperazin-1-yl)-1-piperidyl]-1,5-naphthyridine] | 25.1 to 158
16 | ≤ 0.0316 | CNCCn1cc(-c2cnc3ccc(-c4c[nH]nc4-c4ccc(F)c(F)c4)nc3c2)cn1 [Compound 8-12, 2-(4-(6-(3-(3,4-difluorophenyl)-1H-pyrazol-4-yl)-1,5-naphthyridin-3-yl)-1H-pyrazol-1-yl)-N-methylethan-1-amine] | ≤ 20
17 | 3.98 to 31.6 | Cn1cccc(-c2cnc3ccc(-c4c[nH]nc4-c4ccc(F)c(F)c4)nc3c2)c1=O [Compound 8-16, 3-[6-[3-(3,4-difluorophenyl)-1H-pyrazol-4-yl]-1,5-naphthyridin-3-yl]-1-methyl-pyridin-2-one] | 25.1 to 158
18 | 0.398 to 3.16 | CNCCn1cc(-c2cnc3ccc(-c4c[nH]nc4-c4cccc(COC)c4)nc3c2)nn1 [Compound 14-15, 2-(4-(6-(3-(3-(methoxymethyl)phenyl)-1H-pyrazol-4-yl)-1,5-naphthyridin-3-yl)-1H-1,2,3-triazol-1-yl)-N-methylethan-1-amine] | 25.1 to 158
